US10221426B2, “Constitutively active PYR/PYL receptor proteins for improving plant stress tolerance” (The Regents of the University of California, priority 2009, dated 2019)

System: PYR/PYL receptors PYR1, PYL2, PYL3, and/or PYL4
Assay: Yeast two hybrid agonist screens (conventional and halo assays; compound library and plant extracts)
Type: cell-based, Arabidopsis
Source text: We next investigated whether other compounds besides ABA and pyrabactin could act as agonists of PYR/PYL proteins. Yeast two hybrid strains expressing ABA-receptors and type 2 C protein phosphatases in the appropriate vectors can be used to monitor activation of ABA receptors. These yeast strains therefore create a facile screening system for the identification of cell permeant compounds that act as ABA agonists, i.e. compounds that promote binding of PYR/PYL family members to their protein phosphatase targets. […]
To conduct these agonist assays, screening compounds are added to microtiter wells and appropriate yeast growth media are added. The wells are then seeded with PYR/PYL-PP2C strains and agonist activity is monitored after growth of the strains on the chemical-containing medium. […]
Using a combination of the conventional and halo assays as described above, 65,000 screening compounds were tested for activation of PYR1, PYL2, PYL3 or PYL4 expressing yeast two hybrid strains. Hit compounds that activated any of the yeast strains were retested on all 4 yeast strains and activity assessed qualitatively using X-gal staining assays. […]

activation of PYR/PYL yeast two hybrid strains: naturally occurring ABA agonist
Substance: copaenoic acid
